Results on 6 compounds are retold here after ChEMBL document CHEMBL4196227, “Potential of PDE10A Inhibitors as Treatment for Schizophrenia and Other Neurological Disorders” (ACS Med Chem Lett, 2018).

Where only a bound is given, the exact number is not on record here.

Series [1] concerns the target cAMP and cAMP-inhibited cGMP 3',5'-cyclic phosphodiesterase 10A (Homo sapiens, UniProt Q9Y233). The experiment in a line: Inhibition of recombinant PDE10A (unknown origin) using cAMP/cGMP as substrate incubated for 60 mins by HTRF assay.
A short description of series [2]: Clearance in human liver microsomes at 0.5 uM preincubated for 5 mins followed by NADPH addition measured after 30 mins by MSMS analysis. In kind it is ADME, microsome. The settings on record: read-out: CLH. Background: Liver microsomes are a subcellular fraction often used to study metabolism.
Series [3] is described as follows: Clearance in rat liver microsomes at 0.5 uM preincubated for 5 mins followed by NADPH addition measured after 30 mins by MSMS analysis. In kind it is ADME, microsome. Particulars: read-out: CLH.

Sequence of cAMP and cAMP-inhibited cGMP 3',5'-cyclic phosphodiesterase 10A (Q9Y233 whole entry): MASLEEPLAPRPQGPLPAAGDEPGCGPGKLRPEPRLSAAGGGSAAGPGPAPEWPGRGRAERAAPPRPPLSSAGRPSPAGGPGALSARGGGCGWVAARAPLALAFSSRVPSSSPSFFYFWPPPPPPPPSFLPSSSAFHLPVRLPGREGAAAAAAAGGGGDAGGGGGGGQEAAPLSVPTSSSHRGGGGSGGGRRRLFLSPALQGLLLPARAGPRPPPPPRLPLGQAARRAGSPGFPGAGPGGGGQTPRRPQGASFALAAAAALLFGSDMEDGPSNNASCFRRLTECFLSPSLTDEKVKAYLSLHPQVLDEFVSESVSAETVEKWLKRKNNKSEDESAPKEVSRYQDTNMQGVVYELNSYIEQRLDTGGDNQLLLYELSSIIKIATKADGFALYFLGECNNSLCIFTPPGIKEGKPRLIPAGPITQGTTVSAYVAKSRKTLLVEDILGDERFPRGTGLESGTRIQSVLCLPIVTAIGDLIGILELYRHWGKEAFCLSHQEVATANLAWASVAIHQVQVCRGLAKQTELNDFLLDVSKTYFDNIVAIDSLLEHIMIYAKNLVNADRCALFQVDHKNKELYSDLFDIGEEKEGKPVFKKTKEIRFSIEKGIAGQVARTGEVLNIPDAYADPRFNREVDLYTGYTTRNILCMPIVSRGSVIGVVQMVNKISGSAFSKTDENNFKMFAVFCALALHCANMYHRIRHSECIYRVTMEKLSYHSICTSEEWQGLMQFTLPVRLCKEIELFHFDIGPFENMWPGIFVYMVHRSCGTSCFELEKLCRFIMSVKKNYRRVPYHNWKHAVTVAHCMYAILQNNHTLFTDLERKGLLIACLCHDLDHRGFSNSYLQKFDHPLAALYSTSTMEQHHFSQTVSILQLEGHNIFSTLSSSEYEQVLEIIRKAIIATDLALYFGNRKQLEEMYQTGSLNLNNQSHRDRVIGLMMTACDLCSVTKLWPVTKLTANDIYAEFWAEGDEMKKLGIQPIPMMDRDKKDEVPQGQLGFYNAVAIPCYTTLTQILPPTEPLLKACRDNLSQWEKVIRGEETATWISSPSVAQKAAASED

For the compound `Cn1cc(-c2ccncc2)c(-c2ccc(C#Cc3ccccn3)cc2)n1`, in series [1], the 50% inhibitory concentration (IC50) (as a rule, the point on the concentration scale where inhibition reaches its midpoint) is under 0.1 µM. Moreover, the microsomal CLint at 0.5 µM in series [2] and in series [3] was under 100 µL/min/mg in each case.
In the case of `Cc1cccc(C#Cc2ccc(-c3nn(C)cc3-c3cn[nH]c3)cc2)n1`, the IC50 in series [1] fell in the range of 0.2 to 0.5 µM. In addition, the microsomal CLint at 0.5 µM in series [2] and in series [3] was under 100 µL/min/mg in each case.
In the case of `Cn1cc(-c2ccncc2)c(-c2ccc(C#Cc3nccn3C)cc2)n1`, in series [1], the IC50 was under 0.1 µM. For the same compound, the microsomal CLint at 0.5 µM in series [2] and in series [3] was under 100 µL/min/mg throughout.
`Cn1cc(-c2ccncc2)c(-c2ccc(C#Cc3ccc4ccccc4n3)cc2)n1`: the IC50 in series [1] is under 0.1 µM. The microsomal CLint at 0.5 µM in series [2] and in series [3] was under 100 µL/min/mg in each case.
Take `COc1cc(-c2nn(C)cc2-c2ccncc2)ccc1C#Cc1cccc(C)n1`: the IC50 in series [1] was under 0.1 µM. Moreover, the figures for the microsomal CLint at 0.5 µM in series [2] and in series [3] were under 100 µL/min/mg and 100 to 200 µL/min/mg, respectively.
Regarding `Cn1cc(-c2ccncc2)c(-c2ccc(C#Cc3nccs3)cc2)n1`, the IC50 in series [1] was in the range of 0.1 to 0.2 µM. Further, the microsomal CLint at 0.5 µM in series [2] and in series [3] was under 100 µL/min/mg in each case.
